Columns and labels:
Details in all cases: 72 h
MOLM-13 [1] = system: MOLM-13
How it was run: (§1)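 In 384-well plates holding acoustically pre-printed compounds at five tenfold doses from 1 to 10,000 nM, in duplicate, fifteen myeloid leukaemia cell lines were grown in RPMI 1640 for 72 h at 37 °C with 5% CO2. Luminescent ATP viability was scaled between vehicle and a positive control at 10 µM. The IC50 was then taken from log-logistic dose–response fits with four parameters.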

BV-173 [2] = system: BV-173
How it was run: as §1

ML-2 [3] = system: ML-2
How it was run: as §1

KU-812 [4] = system: KU-812
How it was run: as §1

KCL-22 [5] = system: KCL-22
How it was run: as §1

KG-1 [6] = system: KG-1
How it was run: as §1

HEL = system: HEL
How it was run: as §1

LAMA-84 [7] = system: LAMA-84
How it was run: as §1

Mono-Mac-6 = system: Mono-Mac-6
How it was run: as §1

K-562 [8] = system: K-562
How it was run: as §1

THP-1 [9] = system: THP-1
How it was run: as §1

NOMO-1 [10] = system: NOMO-1
How it was run: as §1

MV4-11 [11] = system: MV4-11
How it was run: as §1

SHI-1 = system: SHI-1
How it was run: as §1

HL-60 [12] = system: HL-60
How it was run: as §1

HL-60 [13] = experiment: cell viability (% survival relative to DMSO control); higher = less cytotoxic
How it was run: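 Four-parameter log-logistic fits in drc and PharmacoGx supplied area under the curve where it is given. Underlying viability came from CellTiter-Glo, normalised to DMSO and proteasome-inhibitor wells, with the proteasome inhibitor at 10 μM. HL-60 cells in RPMI 1640 plus 10% FBS had been rescreened against the full library at five tenfold concentrations of 1–10,000 nM, in duplicate on 384-well plates, with DMSO or 100 nM of one of three metabolic inhibitors, for 72 h at 37 °C, 5% CO2.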

MOLM-13 [14] = experiment: cell viability (% survival relative to DMSO control, bortezomib = 0%); higher = less cytotoxic
How it was run: (§2)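 After 72 h at 37 °C with 5% CO2, cell viability in 384-well plates was measured by CellTiter-Glo luminescence. The plates held compounds pre-printed at 1, 10, 100, 1000 or 10000 nM in duplicate, and cells from 10 AML and 5 CML lines seeded at densities titrated to linear growth. Percent survival is the duplicate mean, normalised to vehicle as 100% and a 10 µM positive control as 0%.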

BV-173 [15] = experiment: as above
How it was run: as §2

ML-2 [16] = experiment: as above
How it was run: as §2

KU-812 [17] = experiment: as above
How it was run: as §2

KCL-22 [18] = experiment: as above
How it was run: as §2

KG-1 [19] = experiment: as above
How it was run: as §2

LAMA-84 [20] = experiment: as above
How it was run: as §2

K-562 [21] = experiment: as above
How it was run: as §2

THP-1 [22] = experiment: as above
How it was run: as §2

NOMO-1 [23] = experiment: as above
How it was run: as §2

MV4-11 [24] = experiment: as above
How it was run: as §2

HL-60 [25] = experiment: as above
How it was run: as §2

CC[C@H](C)C(=O)O[C@H]1C[C@@H](C)C=C2C=C[C@H](C)[C@H](CC[C@@H]3C[C@@H](O)CC(=O)O3)[C@H]21 [Lovastatin]
Details	IC50 (cell viability) [µM]
BV-173 [2]	> 10
HEL	> 10
HL-60 [12]	> 10
K-562 [8]	> 10
KCL-22 [5]	> 10
KG-1 [6]	> 10
KU-812 [4]	> 10
LAMA-84 [7]	> 10
ML-2 [3]	> 10
MOLM-13 [1]	> 10
MV4-11 [11]	> 10
Mono-Mac-6	> 10
NOMO-1 [10]	> 10
SHI-1	> 10
THP-1 [9]	> 10

cell viability [%], HL-60 [13]
Details	0.001 µM	0.01 µM	0.1 µM	1 µM	10 µM
co-treatment: AZD3965 100 nM	92.4	104.3	101	98.2	94.1
co-treatment: DMSO vehicle	96.8	102	101	96.5	95.5
co-treatment: GSK2194069 100 nM	104	107	104	102	98.48
co-treatment: pictilisib 100 nM	98.2	105	98.1	94.1	75.54

cell viability [%]
Details	1 nM	10 nM	100 nM	1000 nM	10000 nM
BV-173 [15]	109	94.6	95.3	98.7	79.1
HL-60 [25]	96.8	113	101	101	102
K-562 [21]	108	98.9	101	99.3	88.4
KCL-22 [18]	93.6	67.8	114	98.8	95.4
KG-1 [19]	98.7	93.3	107	96.3	90.2
KU-812 [17]	102	96.4	94	87.2	84
LAMA-84 [20]	88.8	103	104	92.3	90.9
ML-2 [16]	108	105	111	104	102
MOLM-13 [14]	86.4	85.7	83.8	87.4	74.7
MV4-11 [24]	97.6	97.3	106	93.5	93.2
NOMO-1 [23]	101	91.9	97.2	93.6	90.7
THP-1 [22]	98.1	88.8	100	97.3	98.6

O=C(O)Cn1nnc(-c2cc(N3CCC(Oc4cc(F)ccc4Br)CC3)no2)n1 [MK-8245]
Details	IC50 (cell viability) [µM]
BV-173 [2]	> 10
HEL	> 10
HL-60 [12]	> 10
K-562 [8]	6.81
KCL-22 [5]	> 10
KG-1 [6]	> 10
KU-812 [4]	> 10
LAMA-84 [7]	> 10
ML-2 [3]	> 10
MOLM-13 [1]	0.643
MV4-11 [11]	> 10
Mono-Mac-6	> 10
NOMO-1 [10]	> 10
SHI-1	> 10
THP-1 [9]	> 10

cell viability [%], HL-60 [13]
Details	0.001 µM	0.01 µM	0.1 µM	1 µM	10 µM
co-treatment: AZD3965 100 nM	94.6	102	96.7	94.6	108
co-treatment: DMSO vehicle	99.9	99.3	97.87	94.57	100
co-treatment: GSK2194069 100 nM	96.6	100	101	90.2	97.4
co-treatment: pictilisib 100 nM	95.7	96.7	104	90.7	103

cell viability [%]
Details	1 nM	10 nM	100 nM	1000 nM	10000 nM
BV-173 [15]	88.1	105	91.2	88.6	87.3
HL-60 [25]	105	93.2	108	50.7	94.3
K-562 [21]	97.7	122	90.5	88.2	41.2
KCL-22 [18]	105	118	95.5	97.7	60.1
KG-1 [19]	105	117	108	102	112
KU-812 [17]	99	107	93.4	88.2	94.7
LAMA-84 [20]	99.6	109	95.1	95.5	91.6
ML-2 [16]	109	111	102	105	96.7
MOLM-13 [14]	104	131	86.1	48.2	35.8
MV4-11 [24]	96.8	91.6	92.4	116	94.2
NOMO-1 [23]	95.8	103	96.9	96.9	90
THP-1 [22]	95.3	96.1	102	99	89.2
